Data taken from PMC7765409 (International Journal of Molecular Sciences, 2020).

Legend:
hiPSC-Hep = assay: valid cell count (Hoechst nuclei) in hiPSC-Hep, multiplexed viability readout; format: cell-based; details: Homo sapiens; for IC50: 10-point dose-response, multiplexed with lipid readout
Method: To induce hepatic triglycerides (TAG) accumulation, before staining, cells were treated with 20 μL of 2× FA mixture, consisting of different proportions of oleic acid (OA-BSA, 25 µM, Sigma, #O3008), palmitic acid (PA-BSA, 200 µM, Agilent Technologies, #102720100) and thapsigargin (TG, 1 µM, Abcam, #120286) with a total volume of 40 μL/well. The TG/FA mixture was dispensed with BioTek^TM Microflo^TM select dispenser (#7170011, BioTek Instruments) and incubated for 18 h. Next, to label TAG accumulation stored into cytoplasmic lipid droplets, upon treatment, living cells were washed two times with warm Dulbecco’s Phosphate-Buffered Saline 1X (PBS, Corning, #21-031CV) with a handheld 384-channel electronic pipette device and then incubated for 15 min with a lipophilic dye, BODIPY 493/503 (8 ug/mL Life technologies, #D3922-green), in PBS at 37 °C. BODIPY (493/503) has become the standard dye utilized by scientists to study lipid droplets in live cells. After three washes with PBS cells were fixed with 4% paraformaldehyde methanol-free (PFA, Electron Microscopy Science, #15710) in PBS for 15 min at room temperature (RT). Cell health was monitored by Hoechst 33342 (10 ug/mL, Molecular Probe, #H21492) staining in PBS for nuclear count. After TAG staining the 384-assay plates were loaded in an automated confocal microscope with Opera High Content Imaging System (PerkinElmer, Waltham, MA, USA). Dyes were excited and images were captured on the Hoechst 3342 and Alexa Fluor 488 channels and signals were collected with a long pass filter 410 and 505 nm, for nuclei and TAG, respectively, at objective 20× air objective for HCA. To capture enough cells (>600) for the analysis, eight fields per well were imaged. Hoechst 33342 fluorescence was used to identify the nuclear region and cell counts. To assess intracellular fat deposits, BODIPY 493/503 fluorescence intensity was measured inside the cytoplasm region. […]

C/EBPα mRNA expression = assay: RT-qPCR gene expression in TG/FA-treated hiPSC-Hep; format: cell-based, human; details: 24 h pre-treatment then TG/FA 18 h
Method: (§1) To explore the signaling partners triggered or altered by the drugs, we performed gene expression RT-qPCR. The hiPSC-Hep were pre-treated in a 24-well plate with the three compounds shown in Figure 7 for 24 h followed by TG/FA challenge for an additional 18 h and RNA from each treatment well was isolated. The pre-treatment paradigm was chosen to stay consistent with how the original HTS was performed. We analyzed several target gene expression levels in the C/EBP-EP300 pathway including CDK2, CDK4, C/EBPα and C/EBPβ, EP300, and diacylglycerol acyltransferase 2 (DGAT2).
(§2) RNA was isolated from hiPSC-derived hepatocytes using the RNeasy kit (Qiagen, Frederick) and subsequently subjected to DNase digestion (Qiagen). Total RNA was quantified using NanoDrop 8000 (Thermo Scientific). The quality of total RNA was assessed by the Agilent Bioanalyzer Nano chip (Agilent Technologies) and RNA integrity number (RIN) ranged from 9.7 to 10. Reverse transcription was performed using the high capacity cDNA reverse transcription kit (Applied Biosystems, Foster City, CA, USA) according to the manufacturer’s recommendation and the complementary DNA (cDNA) obtained used for real-time quantitative PCR. The reaction mixture (10 μL), containing 1 μL of cDNA template, 0.5 μL each of primer and probe (20×, Thermo Fisher Scientific) mix for the gene of interest plus the reference gene and TaqMan Universal PCR master mix (Applied Biosystems) was added to the opaque white 384-well plates and amplified as follows: after 2 min of initial incubation at 50 °C and 10 min of initial denaturation at 95 °C, 45 cycles at 95 °C for 15 s, 60 °C for 1 min for annealing and 1 sec at 72 °C for final extension were performed. Assays were designed to have primers/probes to span exon–exon junctions (Table S1). Direct detection of PCR products was monitored by measuring the fluorescence produced by the result of TaqMan probe hydrolysis after every cycle. All experiments were carried out in triplicate in a LightCycler 480 thermocycler (Roche Diagnostic). Relative gene expression from qPCR data between groups of samples were assessed using a ∆∆Cq method. To adjust for variations in the cDNA synthesis each gene was normalized to that of hypoxanthine phosphoribosyl transferase 1 (HPRT1] or GAPDH mRNA.

CDK2 gene expression = assay: RT-qPCR gene expression in TG/FA-treated hiPSC-Hep; format: cell-based, human; details: 24 h pre-treatment then TG/FA 18 h; relative to TG/FA
Method: as §1, §2

CDK4 gene expression = assay: RT-qPCR gene expression in TG/FA-treated hiPSC-Hep; format: cell-based, human; details: 24 h pre-treatment then TG/FA 18 h, relative to TG/FA
Method: as §1, §2

EP300 gene expression = assay: RT-qPCR gene expression in TG/FA-treated hiPSC-Hep; format: cell-based, human; details: 24 h pre-treatment then TG/FA 18 h; relative to TG/FA
Method: as §1, §2

CDK2 = test system: CDK2; parameters: method as in AstraZeneca data repository; details: median log of IC50/EC50/Ki/Kd annotations, highest value; ref AstraZeneca data repository; cited from earlier work

| Compound | IC50 (hiPSC-Hep) [µM] | effect on C/EBPα mRNA level (C/EBPα mRNA expression; relative to TG/FA) | effect on CDK2 gene expression (CDK2 gene expression) | effect on CDK4 mRNA level (CDK4 gene expression) | effect on EP300 gene expression (EP300 gene expression) | pXC50 CDK2 (CDK2) | EC50 (hiPSC-Hep; Figure S5 dose-response, read-out: EC50, viable cell count (red line)) [µM] | C/EBPα mRNA expression suppressed by (C/EBPα mRNA expression; 5 µM) [%] | CDK4 gene expression suppressed to (CDK4 gene expression; 5 µM) [%] |
| --- | --- | --- | --- | --- | --- | --- | --- | --- | --- |
| Cc1ncc(-c2nc(Nc3ccc(N4CCN(C(=O)CO)CC4)cc3)ncc2F)n1C(C)C [C3] | > 30 | no effect | no effect | no effect | no effect | 8.24 |  |  |  |
| CNC(=O)c1nn(C)c2c1C(C)(C)Cc1cnc(Nc3ccc(N4CCN(C)CC4)cc3)nc1-2 [C16, Milciclib] | 16.6 |  | overall increase |  | not significantly affected | 7.60 | 16.6 | 47 | ~34 |
